For assay [1], the system named is sunflower. Description: Test C pre-/postemergence herbicide test. In kind it is in vivo, Helianthus annuus. The following applies: Preemergence. From the text:
Seeds of plant species selected from blackgrass (Alopecurus myosuroides), ryegrass, Italian (Italian ryegrass, Lolium multiflorum), wheat (winter wheat, Triticum aestivum), galium (catchweed bedstraw, Galium aparine), corn (Zea mays), crabgrass, large (large crabgrass, Digitaria sanguinalis), foxtail, giant (giant foxtail, Setaria faberii), johnsongrass (Sorghum halepense), lambsquarters (Chenopodium album), morningglory (Ipomoea coccinea), nutsedge, yellow (yellow nutsedge, Cyperus esculentus), pigweed (Amaranthus retroflexus), ragweed (common ragweed, Ambrosia elatior), soybean (Glycine max), barnyardgrass (Echinochloa crus-galli), oilseed rape (Brassica napus), waterhemp (common waterhemp, Amaranthus rudis), kochia (Kochia scoparia), oat, wild (wild oat, Avena fatua), surinam grass (Brachiaria decumbens), foxtail, green (green foxtail, Setaria viridis), goosegrass (Eleusine indica), bromegrass, downy (downy bromegrass, Bromus tectorum), nightshade (eastern black nightshade, Solanum ptycanthum), cocklebur (common cocklebur, Xanthium strumarium), cupgrass, woolly (woolly cupgrass, Eriochloa villosa), bermudagrass (Cynodon dactylon), sunflower, (common oilseed sunflower, Helianthus annuus), Russian thistle (Salsola kali) and velvetleaf (Abutilon theophrasti) were planted into a blend of loam soil and sand and treated preemergence with test chemicals formulated in a non-phytotoxic solvent mixture which included a surfactant. At the same time, plants selected from these crop and weed species and also barley (winter barley, Hordeum vulgare), […]), chickweed (common chickweed, Stellaria media), deadnettle (henbit deadnettle, Lamium amplexicaule), and canarygrass (littleseed canarygrass, Phalaris minor) were planted in pots containing Redi-Earth® planting medium (Scotts Company, 14111 Scottslawn Road, Marysville, Ohio 43041) comprising spaghnum peat moss, vermiculite, wetting agent and starter nutrients and treated with postemergence applications of test chemicals formulated in the same manner. Plants ranged in height from 2 to 18 cm (1- to 4-leaf stage) for postemergence treatments. Treated plants and controls were maintained in a greenhouse for 13 to 15 days, after which time all species were compared to controls and visually evaluated. Plant response ratings, summarized in Table C, are based on a scale of 0 to 100 where 0 is no effect and 100 is complete control. A dash (-) response means no test result.

Assay [2] concerns sprangletop, Brdd. Description: Test F flood (paddy) test. It counts as in vivo, Leptochloa fascicularis. The following applies: 21 d, scale 0-100. The essentials: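 Visual injury ratings (0 no effect to 100 complete control) were taken 21 d after treatment against untreated controls. Compounds went directly into paddy water held 3 cm above soil, applied at the 2.0–2.5-leaf stage in sterilized Tama silt loam under a 30/27 °C, 16-h greenhouse regime.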

Assay [3] relates to lambsquarters. Description: Test D pre-/postemergence herbicide test. The following applies: for Plant response rating: Lambsquarters, scale 0 to 100; for Plant response rating, Lambsquarters: scale 0 to 100 (0 no effect, 100 complete control). In kind it is in vivo, Chenopodium album. In a few lines:
(§1)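 Test chemicals, formulated in a non-phytotoxic solvent mixture with surfactant, are sprayed preemergence onto seeds in silt loam and postemergence onto plants of 2–18 cm. Plants are held in a controlled growth environment for 7 to 21 days, then rated visually versus controls (0–100).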

Assay [4] deals with oat, wild. Description: Test D pre-/postemergence herbicide test. In kind it is in vivo, Avena fatua. The following applies: for Plant response rating: Postemergence, Oat, Wild, scale 0 to 100; for Plant response rating, Oat, Wild: Preemergence, scale 0 to 100 (0 no effect, 100 complete control). From the text:
Seeds of plant species selected from bluegrass (annual bluegrass, Poa annua), blackgrass (Alopecurus myosuroides), canarygrass (littleseed canarygrass, Phalaris minor), chickweed (common chickweed, Stellaria media), galium (catchweed bedstraw, Galium aparine), bromegrass, downy (downy bromegrass, Bromus tectorum), field poppy (Papaver rhoeas), field violet (Viola arvensis), foxtail, green (green foxtail, Setaria viridis), deadnettle (henbit deadnettle, Lamium amplexicaule), ryegrass, Italian (Italian ryegrass, Lolium multiflorum), kochia (Kochia scoparia), lambsquarters (Chenopodium album), oilseed rape (Brassica napus), pigweed (Amaranthus retroflexus), chamomile (scentless chamomile, Matricaria inodora), Russian thistle (Salsola kali), speedwell (bird's-eye speedwell, Veronica persica), barley, spring (spring barley, Hordeum vulgare), wheat, spring (spring wheat, Triticum aestivum), buckwheat, wild (wild buckwheat, Polygonum convolvulus), mustard, wild (wild mustard, Sinapis arvensis), oat, wild (wild oat, Avena fatua), radish, wild (wild radish, Raphanus raphanistrum), […]), barley, winter (winter barley, Hordeum vulgare), and wheat, winter (winter wheat, Triticum aestivum) were planted into a silt loam soil and treated preemergence with test chemicals formulated in a non-phytotoxic solvent mixture which included a surfactant. At the same time, these species were planted in pots containing Redi-Earth® planting medium (Scotts Company, 14111 Scottslawn Road, Marysville, Ohio 43041) comprising spaghnum peat moss, vermiculite, wetting agent and starter nutrients and treated with postemergence applications of the test chemicals formulated in the same manner. Plants ranged in height from 2 to 18 cm (1- to 4-leaf stage). Treated plants and controls were maintained in a controlled growth environment for 7 to 21 days after which time all species were compared to controls and visually evaluated. Plant response ratings, summarized in Table D, are based on a scale of 0 to 100 where 0 is no effect and 100 is complete control. A dash (-) response means no test result.

For assay [5], the system named is windgrass. The assay can be described thus: Test D pre-/postemergence herbicide test. In kind it is in vivo, Apera spica-venti. The following applies: for Plant response rating: Postemergence, Windgrass, scale 0 to 100; for Plant response rating, Windgrass: Preemergence, scale 0 to 100 (0 no effect, 100 complete control). In a few lines: as §1
Setting [6] is: 125 g ai/ha, scale 0 to 100 (0 no effect, 100 complete control).

For the compound `O=C1NCC(c2ccc(Cl)c(Cl)c2)C1C(=O)Nc1ccccc1F` (racemic) [Compound 14], the “Plant response rating, Sunflower” value is 0 in assay [1] (62 g ai/ha, scale 0 to 100) and 0 in assay [1] (setting [6]).
As to `O=C1NCC(c2ccc(F)c(F)c2)C1C(=O)Nc1cccc(F)c1F` (racemic) [Compound 101], the “Plant response rating, Sprangletop, Brdd.” value turned out to be 75 in assay [2] (64 g ai/ha), 85 in assay [2] (125 g ai/ha), 95 in assay [2] (250 g ai/ha) and 95 in assay [2] (500 g ai/ha).
As to `O=C1NCC(c2cccc(C(F)F)c2)C1C(=O)Nc1ccccc1F` (racemic) [Compound 210], the “Plant response rating, Sprangletop, Brdd.” value in assay [2] (125 g ai/ha), in assay [2] (250 g ai/ha) and in assay [2] (500 g ai/ha) was 100 throughout.
With `O=C1NCC(c2cc(F)c(F)c(F)c2)C1C(=O)Nc1cccc(F)c1F` (stereo not shown) [Compound 48], the “Plant response rating, Sunflower” value in assay [1] (62 g ai/ha, scale 0 to 100) came to 0; in assay [1] (setting [6]), 0; in assay [1] (16 g ai/ha, scale 0 to 100), 0.
Take `O=C1NCC(c2ccc(Cl)c(F)c2)C1C(=O)Nc1cccc(F)c1F` (stereo not shown) [Compound 52]: the “Plant response rating, Sunflower” value is 0 in assay [1] (62 g ai/ha, scale 0 to 100) and 0 in assay [1] (setting [6]). Further, the Plant response rating in assay [3] (Postemergence, 16 g ai/ha) was 0; in assay [3] (Postemergence, 31 g ai/ha), 0; in assay [3] (Postemergence, 62 g ai/ha), 0; in assay [3] (Postemergence, 125 g ai/ha), 30; in assay [3] (Postemergence, 250 g ai/ha), 30; in assay [3] (Preemergence, 125 g ai/ha) it was 20. The Plant response rating is 20 in assay [3] (Preemergence, 250 g ai/ha); 0 in assay [4] (16 g ai/ha); 0 in assay [4] (31 g ai/ha); 0 in assay [4] (62 g ai/ha); 0 in assay [4] (125 g ai/ha); 0 in assay [4] (250 g ai/ha). Further, the Plant response rating in assay [5] (16 g ai/ha), in assay [5] (31 g ai/ha), in assay [5] (62 g ai/ha), in assay [5] (125 g ai/ha) and in assay [5] (250 g ai/ha) was 0 in each case. The “Plant response rating, Lambsquarters” value in assay [3] (Preemergence, 62 g ai/ha) was found to be 0; in assay [3] (Preemergence, 16 g ai/ha), 0; in assay [3] (Preemergence, 31 g ai/ha), 0. In addition, the “Plant response rating, Oat, Wild” value in assay [4] (62 g ai/ha), in assay [4] (125 g ai/ha), in assay [4] (16 g ai/ha), in assay [4] (31 g ai/ha) and in assay [4] (250 g ai/ha) was 0 each time. Besides, the “Plant response rating, Windgrass” value in assay [5] (62 g ai/ha) was determined as 0; in assay [5] (125 g ai/ha), 40; in assay [5] (16 g ai/ha), 0; in assay [5] (31 g ai/ha) it was 0; in assay [5] (250 g ai/ha) it was 60.
For the compound `O=C1NCC(c2ccc(F)c(Cl)c2)C1C(=O)Nc1ccccc1F` (stereo not shown) [Compound 60], the “Plant response rating, Sunflower” value in assay [1] (62 g ai/ha, scale 0 to 100) was found to be 0; in assay [1] (setting [6]), 0.
In the case of `O=C1NCC(c2cccc(OC(F)(F)F)c2)C1C(=O)Nc1ccccc1F` (stereo not shown) [Compound 69], in assay [1] (31 g ai/ha, scale 0 to 100, 0 is no effect and 100 is complete control), the “Sunflower plant response rating” value was found to be 10. Further, the “Plant response rating, Sunflower” value in assay [1] (62 g ai/ha, scale 0 to 100) worked out at 10; in assay [1] (setting [6]), 10. For the same compound, the “Plant response rating (scale of 0 to 100), Sunflower” value in assay [1] (250 g ai/ha) is 15.
`O=C1NC[C@H](c2cccc(C(F)(F)F)c2)[C@H]1C(=O)Nc1ccccc1F` [Compound 204, (3R,4S)—N-(2-fluorophenyl)-2-oxo-4-[3-(trifluoromethyl)phenyl]-3-pyrrolidinecarboxamide]: the “Plant response rating, Lambsquarters” value is 30 in assay [3] (Preemergence, 62 g ai/ha); 65 in assay [3] (Preemergence, 125 g ai/ha); 35 in assay [3] (Preemergence, 31 g ai/ha). This compound also had a Plant response rating in assay [3] (Preemergence, 250 g ai/ha) of 90. Further, the “Plant response rating, Oat, Wild” value in assay [4] (62 g ai/ha) is listed as 25; in assay [4] (125 g ai/ha), 60; in assay [4] (31 g ai/ha), 0; in assay [4] (250 g ai/ha) it was 40. The “Plant response rating, Windgrass” value in assay [5] (62 g ai/ha) is listed as 65; in assay [5] (125 g ai/ha) it was 85; in assay [5] (31 g ai/ha), 50; in assay [5] (250 g ai/ha), 95. In addition, the “Plant response rating, Sprangletop, Brdd.” value is recorded as 98 in assay [2] (125 g ai/ha), 100 in assay [2] (250 g ai/ha) and 100 in assay [2] (500 g ai/ha).
Take `O=C1NC[C@H](c2cccc(C(F)(F)F)c2)[C@H]1C(=O)Nc1cccc(F)c1F` [Compound 206]: the “Plant response rating, Lambsquarters” value is given as 80 in assay [3] (Preemergence, 62 g ai/ha); 85 in assay [3] (Preemergence, 125 g ai/ha); 50 in assay [3] (Preemergence, 31 g ai/ha). The same compound came in with a Plant response rating in assay [3] (Preemergence, 250 g ai/ha) of 90. In addition, the “Plant response rating, Oat, Wild” value is on record as 35 in assay [4] (62 g ai/ha), 40 in assay [4] (125 g ai/ha), 25 in assay [4] (31 g ai/ha) and 55 in assay [4] (250 g ai/ha). In addition, the “Plant response rating, Windgrass” value amounted to 75 in assay [5] (62 g ai/ha), 90 in assay [5] (125 g ai/ha), 75 in assay [5] (31 g ai/ha) and 90 in assay [5] (250 g ai/ha). For the same compound, the “Plant response rating, Sprangletop, Brdd.” value in assay [2] (64 g ai/ha) was 90; in assay [2] (125 g ai/ha) it was 95; in assay [2] (250 g ai/ha), 100; in assay [2] (500 g ai/ha) it was 100.
In the case of `CN1CC(c2ccc(F)c(F)c2)C(C(=O)Nc2cccc(F)c2F)C1=O` (stereo not shown) [Compound 303], the “Plant response rating, Sprangletop, Brdd.” value in assay [2] (62 g ai/ha) was 70; in assay [2] (125 g ai/ha), 80; in assay [2] (250 g ai/ha), 85; in assay [2] (500 g ai/ha) it was 90.

The record behind these values is patent US10294202B2, “Pyrrolidinones as herbicides” (FMC Corporation, priority 2013, dated 2019).
